Measurements published in patent publication US10570180B2, “Anti-bacterial agents and their use in therapy” (priority 2015, dated 2020).
Values after ≈ are worked out from the molar mass of the structure shown. Read-outs that look alike come from different tables or passages of the source. Ends that are not written are not given here.

Columns and labels:
[1] = system: Staphylococcus aureus MRSA 1040s; assay: microbe, parasite or virus in culture; type: cell-based
Procedure: (§1) ATX-101 was dissolved in Mueller-Hinton broth to 1.25 times of the desired assay concentration. Antibiotics were dissolved in Mueller-Hinton broth and Mueller-Hinton broth with ATX-101 at a concentration of 1.25 times the highest desired assay concentrations. Antibiotics were pharmaceutical grade purchased from Sigma-Aldrich.
(§2) Two-fold serial dilutions of antibiotics were made in Mueller-Hinton with different concentrations of ATX-101, and the solutions were placed in four parallel wells is Nunc 384-well micro plates (30 μl per well in Nunc 242757 microplates). A group of 8 wells with no addition of antibiotics for each ATX-101 concentration was included on each micro plate as a growth reference.
(§3) At the day of analysis, overnight TSB cultures inoculated from freeze stocks (6 ml in 50 ml tube tilted to 45-degrees angle, 200 rpm, 2.5 cm amplitude, 37° C.) were diluted in TSB until the OD800 was 0.10, and further diluted 1:40 in Mueller-Hinton broth. Each well in the 384-well assay plates was inoculated with 7.5 μl of the diluted culture, giving the same dilution of the culture in the assay cultures. The microplates were placed in plastic bags and incubated without shaking at 37° C. The optical density at 600 nm in the microwells was measured after approximately 19 hours of incubation, and the relative growth yield was calculated based on the growth in the reference groups. The MIC value was set to the highest concentration giving less than 30% growth in all 4 parallel wells within the sample groups. The microplates were further incubated for 6 hours, and optical density in the cultures was measured once more for confirmation of the estimated MIC-values.
as §1, with “The APIM peptide was” for “ATX-101 was”, “with APIM” for “with ATX-101”
as §2, with “APIM,” for “ATX-101,”, “in” for “is”, “APIM” for “ATX-101”, “as” for “as a”
as §3, with “inoculated” for “inoculated from”, “OD600” for “OD800”, “culture.” for “culture, giving the same dilution of the culture in the assay cultures.”, “yield in each well” for “yield”
In view of the anti-bacterial effect of ATX-101 on strains of MRSA, the MIC for a variety of APIM variants was determined using Staphylococcus aureus MRSA 1040s. […] A cell penetrating peptide (SEQ ID NO: 337) present in all of the APIM peptides, was used as a negative control.
Next, the effect of APIM peptides on the MIC of antibiotics was determined using Staphylococcus aureus MRSA 1040s.
(§4) The MICS for various APIM peptides were determined for various bacteria, as described above.

[2] = target: β-clamp protein from E. coli (Escherichia coli, UniProt P0A988); assay: Microscale thermophoresis (MST); type: binding; settings: no data could be obtained
Procedure: Microscale thermophoresis (MST) was used to determine the dissociation constant for various APIM containing peptides.
The β-clamp protein from E. coli was labeled with a fluorescent molecule. Concentration of PCNA was kept constant, whereas dilutions of each APIM containing peptide were prepared (1:1). In a mix of protein and peptide, the signal was recorded in all capillaries with varying concentrations of the unlabeled peptide, and any change of thermophoretic properties was observed as a change in fluorescence intensity.

[3] = system: E. faecium CCUG 37832 (TO-3); type: cell-based, Enterococcus faecium
Procedure: as §1, §2, §3
Accordingly, concentrations of 8 μg/ml and 16 μg/ml of ATX-101 were combined with various antibiotics selected from; 2,4-Diamin, S. methizol, S. methoxa, S. dimetho, Surfaceta, Trimeth, Flumeq, Levoflox, Pruliflox, Metronid and Nitrofur.
as §4

[4] = system: A. baumanii; type: cell-based
Procedure: as §1, §2, §3, §4

[5] = system: Staphylococcus aureus NCTC 6571; type: cell-based; settings: for MIC: NCTC 6571
Procedure: as §1, §2, §3, §4

[6] = system: E. faecium TO-12; type: cell-based
Procedure: as §1, §2, §3, §4

[7] = system: bacteria; assay: MIC of other APIM peptides on bacteria; type: cell-based; settings: Example 2
[8] = system: E. coli NCIMB 12210; assay: MIC assay of antibiotics with ATX-101; type: cell-based, Escherichia coli; settings: FIG. 4
Procedure: (§5) The minimum inhibitory concentration (MIC) of ATX-101 (SEQ ID NO: 1289) was determined for various gram negative and gram positive bacteria. The bacteria, Pseudomonas aeruginosa ATCC 15692, Acinetobacter baumenni ATCC 19600, Escherichia coli ATCC 25922, Pseudomonas aeruginosa TO-5A (clinical isolate), Enterococous faecium CCUG 37832, Enterococcus faecium CTC 492, Micrococcus luteus ATCC 9341 and Escherichie coli NCIMB 12210 were grown in the presence of various concentrations of ATX-101 and/or antibiotic.
as §1, §2, §3
as §1, with “The APIM peptide was” for “ATX-101 was”, “with APIM” for “with ATX-101”
as §2, with “APIM,” for “ATX-101,”, “in” for “is”, “APIM” for “ATX-101”, “as” for “as a”
as §3, with “inoculated” for “inoculated from”, “OD600” for “OD800”, “culture.” for “culture, giving the same dilution of the culture in the assay cultures.”, “yield in each well” for “yield”

[9] = system: MRSA 1040 (u50) biofilm; assay: MRSA biofilm under flow (IBIDI flow-system); type: cell-based, Staphylococcus aureus
Procedure: The IBIDI flow-system coupled with EVOS Auto Imaging system was optimized and used for testing the effect of ATX-101 on MRSA biofilm under flow. MRSA 1040 (u50) was used as model organism; it normally produces a dense biofilm in the growth channel during 36 hours of flow. The effect of 3 different concentrations of ATX-101 was tested (7 μg/ml, 3.5 μg/ml and 0.8 μg/ml). The flow system was programmed with share stress similar to those found in capillary networks (3.49 dyne/cm^2), 2% Luria Bertani (LB) was used for dilution and flow medium.

[10] = system: Staphylococcus aureus MRSA 1096; type: cell-based
Procedure: as §1, §2
At the day of analysis, overnight TSB cultures inoculated from freeze stocks (6 ml in 50 ml tube tilted to 45-degrees angle, 200 rpm, 2.5 cm amplitude, 37° C.) were diluted in TSB until the OD800 was 0.10, and further diluted 1:40 in Mueller-Hinton broth. […] The optical density at 600 nm in the microwells was measured after approximately 19 hours of incubation, and the relative growth yield was calculated based on the growth in the reference groups. […] The microplates were further incubated for 6 hours, and optical density in the cultures was measured once more for confirmation of the estimated MIC-values.

[11] = system: gram positive bacteria (Enterococcus faecium CCUG 37832, Enterococcus faecium CTC 492, Micrococcus luteus ATCC 9341); type: cell-based
Procedure: as §5, §1, §2, §3

[12] = system: gram negative bacteria (Pseudomonas aeruginosa ATCC 15692, Acinetobacter baumenni ATCC 19606, Escherichia coli ATCC 25922, Pseudomonas aeruginosa TO-5A); type: cell-based
Procedure: as §5, §1, §2, §3

[13] = system: P. aeruginosa; type: cell-based
Procedure: as §1, §2, §3, §4

[14] = system: E. faecium CTC 492; assay: MIC assay of antibiotics with ATX-101; type: cell-based, Enterococcus faecium
Procedure: as §5, §1, §2, §3
as §1, with “The APIM peptide was” for “ATX-101 was”, “with APIM” for “with ATX-101”
as §2, with “APIM,” for “ATX-101,”, “in” for “is”, “APIM” for “ATX-101”, “as” for “as a”
as §3, with “inoculated” for “inoculated from”, “OD600” for “OD800”, “culture.” for “culture, giving the same dilution of the culture in the assay cultures.”, “yield in each well” for “yield”

[15] = system: E. coli BL21 (ripl); assay: Overexpression of APIM peptides in E. coli, growth; type: cell-based; settings: induction with 1 mM IPTG, no cell-penetrating peptide; FIG. 9, 10
Description: In order to verify further that the anti-microbial effect of the APIM peptides arise from the APIM sequence, peptides containing only the APIM sequence (i.e. without a cell-penetrating peptide) were over-expressed in E. coli using the expression vector pET28. The APIM peptide was expressed alone or as part of a fusion protein with EYFP. Expression of EYFP alone was used as a control.
The expression vectors containing the respective peptides were transfected into the bacterial strain E. coli BL21 (ripl). Single colonies, 4-6 of each strain, were inoculated in […] LB media (+Km/Clm) in 96 wells plates, and incubated at 37° C. Overnight cultures were diluted 1:100 and grown for 1 h before induction with 1 mM IPTG (initiating peptide expression). OD was measured every hour.
In order to verify that the extended APIM peptides have an anti-bacterial effect, peptides containing only the “extended” APIM sequence (i.e. without a cell-penetrating peptide) were over-expressed in E. coli using the expression vector pET28, using the method described in Example 7. […] The bacterial strain without a plasmid was used as a further control.

[16] = concentration of APIM peptide 15 μg/ml, MRSA 1040s
[17] = starting concentration of ATX-101 150 μg/ml

Sequence of β-clamp protein from E. coli (P0A988 whole entry): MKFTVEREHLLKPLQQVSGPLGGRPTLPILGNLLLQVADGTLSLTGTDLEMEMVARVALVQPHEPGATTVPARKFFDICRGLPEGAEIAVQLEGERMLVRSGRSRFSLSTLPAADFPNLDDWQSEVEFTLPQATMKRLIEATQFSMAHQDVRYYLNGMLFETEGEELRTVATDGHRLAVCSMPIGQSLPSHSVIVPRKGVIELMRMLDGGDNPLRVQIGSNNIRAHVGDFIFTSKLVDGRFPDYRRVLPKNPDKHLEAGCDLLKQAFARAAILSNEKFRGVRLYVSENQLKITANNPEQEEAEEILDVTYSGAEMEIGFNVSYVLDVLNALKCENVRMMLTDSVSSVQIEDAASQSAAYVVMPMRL

N=C(N)NCCC[C@H](NC(=O)[C@H](CCCNC(=N)N)NC(=O)[C@H](CCCNC(=N)N)NC(=O)[C@H](CCCNC(=N)N)NC(=O)[C@H](CCCNC(=N)N)NC(=O)[C@H](CCCNC(=N)N)NC(=O)[C@H](CCCNC(=N)N)NC(=O)[C@H](CCCNC(=N)N)NC(=O)[C@H](CCCNC(=N)N)NC(=O)[C@H](CCCNC(=N)N)NC(=O)[C@@H](N)CCCNC(=N)N)C(=O)O [R11, RRRRRRRRRRR, reference compound]
MIC ([1]; 1040s): 118 µg/mL
interaction with the β-clamp protein [2]: does not interact with the β-clamp protein

CC[C@H](C)[C@H](NC(=O)[C@H](CCCCN)NC(=O)[C@H](CCCNC(=N)N)NC(=O)[C@H](CCCCN)NC(=O)[C@H](CCCCN)NC(=O)[C@H](CCCCN)NC(=O)[C@H](Cc1c[nH]c2ccccc12)NC(=O)[C@@H]1CCCN1C(=O)[C@@H](NC(=O)[C@H](CC(C)C)NC(=O)[C@H](Cc1c[nH]c2ccccc12)NC(=O)[C@H](CCCNC(=N)N)NC(=O)[C@H](CC(=O)O)NC(=O)[C@@H](N)CCSC)C(C)C)C(=O)N[C@@H](CCCNC(=N)N)C(=O)N[C@@H](CCCNC(=N)N)C(=O)N[C@@H](CCCNC(=N)N)C(=O)N[C@@H](CCCNC(=N)N)C(=O)N[C@@H](CCCNC(=N)N)C(=O)N[C@@H](CCCNC(=N)N)C(=O)N[C@@H](CCCNC(=N)N)C(=O)N[C@@H](CCCNC(=N)N)C(=O)N[C@@H](CCCNC(=N)N)C(=O)N[C@@H](CCCNC(=N)N)C(=O)N[C@@H](CCCNC(=N)N)C(=O)O [SEQ ID NO: 1303]
MIC of Erythromycin (Relative values) [1, 16]: 100
MIC ([3]; CCUG 37832): 7.5 µM
MIC [4]: 25.3 µM (≈ 91.1 µg/mL)
MIC [5]: 37.9 µM (≈ 137 µg/mL)
MIC [6]: 25.3 µM (≈ 91.1 µg/mL)

MDRWAVKWKKKRKIRRRRRRRRRRR [SEQ ID NO: 1299]
MIC compared with ATX-101 [7]: lower MICs than ATX-101
MIC of Erythromycin (Relative values) [1, 16]: 200
MIC ([3]; CCUG 37832): 7.5 µM
MIC [5]: 37.9 µM
MIC [6]: 25.3 µM

MDRWLVKWKKKRKIRRRRRRRRRRR [ATX-101]
reduction of the MIC for novobiocin [8]: 16 fold
MIC ([1]; 1040s): 7.5 µM
MIC of ATX-101 ([1]; Table 4, MRSA 1040s): 37.5 µg/mL
MIC ([1]; Table 5, peptide alone, MRSA 1040s): 32 µg/mL
MIC ([1]; Table 6, alone, MRSA 1040s): 16 µg/mL
MIC of Erythromycin (Relative values) ([1]; concentration of APIM peptide 7.5 μg/ml, MRSA 1040s): 1000
MIC of Erythromycin (Relative values) [1, 16]: 125
Factor of inhibition [1, 17]: 0.25
biofilm formation ([9]; 0.8 μg/ml ATX-101, 36 hours, FIG. 15): biofilm formation is inhibited
biofilm formation ([9]; 7 μg/ml ATX-101, 36 hours, FIG. 14): biofilm formation is inhibited
effect on MRSA biofilm under flow ([9]; 7 μg/ml, 3.5 μg/ml and 0.8 μg/ml): Good effect
MIC ([3]; ATX-101 alone, text b504): 7.5 µg/mL
MIC ([3]; Table 9, E. faecium TO-3): 7.5 µM
MIC of ATX-101 ([10]; MRSA 1096): 9.375 µg/mL
Factor of inhibition [10, 17]: 0.0625
MIC [11]: about 1 μg/ml
growth inhibited by ATX-101 from (concentration) ([11]; FIG. 2, gram positive bacteria): about 1 μM
MIC [12]: 5 to 10 µg/mL
growth inhibited by ATX-101 from (concentration) ([12]; FIG. 1, gram negative bacteria): about 1 μM
MIC [5]: 37.9 µM
MIC of ATX-101 ([5]; Staphylococcus aureus NCTC 6571): 150 µg/mL
Factor of inhibition [5, 17]: 1
MIC [13]: 37.9 µM
MIC [6]: 16.8 µM
effect on inhibition of bacterial growth by novobiocin ([14]; 6.5 μg/ml or 13 μg/ml ATX-101, about 0.5-2 μg/ml novobiocin): enhances the inhibition of bacterial growth
growth at higher concentration of ATX-101 ([14]; 20 μg/ml ATX-101, with or without ampicillin or novobiocin): no growth was observed

MDRWSVKWKKKRKIRRRRRRRRRRR [SEQ ID NO: 1298]
MIC compared with ATX-101 [7]: lower MICs than ATX-101
MIC of Erythromycin (Relative values) [1, 16]: 100
MIC ([3]; CCUG 37832): 7.5 µM
MIC [5]: 37.9 µM
MIC [6]: 37.9 µM

RFSLK (APIM variant) [SEQ ID NO: 1291]
bacterial growth on overexpression of APIM peptide (OD) [15]: particularly effective

RWLTK (APIM variant) [SEQ ID NO: 1293]
bacterial growth on overexpression of APIM peptide (OD) [15]: particularly effective

RWLVK (APIM) [SEQ ID NO: 1290]
bacterial growth on overexpression of APIM peptide (OD) [15]: inhibits bacterial growth

RWLVP (APIM variant) [SEQ ID NO: 1292]
bacterial growth on overexpression of APIM peptide (OD) [15]: particularly effective
